From patent US10844049B2, “GLP-1R agonists and uses thereof” (QILU REGOR THERAPEUTICS INC., priority 2018, dated 2020)
pEC50: −log10 of the molar value.

Molecular target: GLP1R (Homo sapiens, UniProt P43220)
Assay: GLP1R cAMP HTRF assay, HEK293/GLP-1R/CRE/Luc (HEK293T cells)
Assay type: cell-based
Conditions: read-out: EC50
Method: GLP-1R-mediated agonist activity was determined with a cell-based functional assay utilizing an HTRF (Homogeneous Time-Resolved Fluorescence) cAMP detection kit (cAMP Dynamic 2 Assay Kit; CisBio cat #62AM4PEC) that measures cAMP levels in the cell. The method is a competitive immunoassay between native cAMP produced by the cells and exogenous cAMP labeled with the dye d2. The tracer binding is visualized by a mAb anti-cAMP labeled with Cryptate. The specific signal (i.e., energy transfer) is inversely proportional to the concentration of cAMP in either standard or experimental sample.
A cell line stably expressing the receptor was isolated.
Varying concentrations of each compound to be tested (in DMSO) were diluted in DMSO to obtain 200× compound working solution first and then 50 nl compounds were added to a white 384-well assay plate (Greiner 784075) with ECHO. The final DMSO concentration was 0.5%. The compound concentration range may be adjusted at any time.
Cells were removed from cryopreservation, re-suspended in 5 mL of Dulbecco's Phosphate Buffered Saline (DPBS-Sigma Cat # D8537) and centrifuged at 900 g for 5 min at 22° C. The cell pellet was then re-suspended in 1 mL of assay buffer [DPBS with 500 μM IBMX (Sigma #15879) and 0.1% BSA (Sigma # A1933). IBMX and BSA were freshly added on the day of assay]. A 10 μL sample of the cell suspension was counted on an Invitrogen Countess II to determine cell viability and cell count per mL. The remaining cell suspension was then adjusted with assay buffer to deliver 1000 viable cells per well using a Matrix Combi Multidrop reagent dispenser. 10 μL cell suspensions were added to each well of the assay plate which already contains compound. The plate was sealed and incubated at 37° C. with 5% CO2 for 30 minutes.
Following the 30 minute incubation, 5 μL of labeled d2 cAMP and 5 μL of anti-cAMP antibody (both diluted 1:20 in cell lysis buffer; as described in the manufacturer's assay protocol) were added to each well of the assay plate. The plates w ere then incubated at room temperature and after 60 minutes, changes in the HTRF signal were read with an Envision multi-label plate reader using excitation of 330 nm and emissions of 615 and 665 nm. Raw data were converted to nM cAMP by interpolation from a cAMP standard curve (as described in the manufacturer's assay protocol) and the percent effect was determined relative to a saturating concentration of the full agonist GLP-17-37 (10 nM) included on each plate. EC50 determinations were made from agonist dose-response curves analyzed with a curve fitting program using a 4-parameter logistic dose response equation.
3) Anti-cAMP antibody-cryptate working solution preparation • c) The lyophilisate was reconstituted with appropriate amount of distilled water according to manufacturer's instruction to make working stock which can be aliquoted and frozen (−20° C.). • d) The working stock solution was diluted 1:20 in the conjugate and lysis buffer before use. Procedures Procedures for Cell Suspension Preparation • 1. Frozen cells were thawed very briefly in a 37° C. water bath under sterile conditions until just before ice completely melt (for about 1 minute) with a continuous agitation. Caution was taken because a longer incubation could result in cell death. • 2. DMSO was removed from the media by carefully transferring thawed cells to a sterile 15/50 mL tube, filling a tube with 10-50 mL of complete media pre-warmed to 37° C., and allowing the cells to sit 5 min before centrifuging at 900 rpm for 5 minutes for cell collection. • 3. The cells were resuspended with assay buffer. • 4. For stable GLP1-R assay, the optimized cell density is 1000 cells/well. Caution was taken because cell density optimization was crucial and needed to be optimized in different laboratories. The level of cAMP produced by the cells must fall within the linear range of the standard curve.

Chain of GLP1R (P43220 24-463): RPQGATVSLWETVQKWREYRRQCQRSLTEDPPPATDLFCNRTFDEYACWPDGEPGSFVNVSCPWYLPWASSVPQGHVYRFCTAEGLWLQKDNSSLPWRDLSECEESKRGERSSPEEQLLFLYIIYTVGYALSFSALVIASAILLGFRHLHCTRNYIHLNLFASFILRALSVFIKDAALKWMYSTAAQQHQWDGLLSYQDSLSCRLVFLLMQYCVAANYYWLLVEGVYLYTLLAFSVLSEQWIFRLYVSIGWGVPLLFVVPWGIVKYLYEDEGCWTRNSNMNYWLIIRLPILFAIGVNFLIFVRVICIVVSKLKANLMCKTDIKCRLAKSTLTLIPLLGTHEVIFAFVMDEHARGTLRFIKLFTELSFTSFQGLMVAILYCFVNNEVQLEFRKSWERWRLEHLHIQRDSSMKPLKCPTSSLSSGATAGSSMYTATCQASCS

| pEC50 | Compound |
| --- | --- |
| ≥ 7.82 | O=C(O)c1ccc2nc(CN3CC=C(c4nc(OCc5ccc(C#CC6CC6)cc5F)ncc4F)CC3)n(C[C@@H]3CCO3)c2c1 [Compound 211, (S)-2-((4-(2-(4-(cyclopropylethynyl)-2-fluorobenzyloxy)-5-fluoropyrimidin-4-yl)-5,6-dihydropyridin-1(2H)-yl)methyl)-1-(oxetan-2-ylmethyl)-1H-benzo[d]imidazole-6-carboxylic acid] |
| ≥ 7.82 | O=C(O)c1ccc2nc(CN3CC=C(c4cccc(OCc5ccc(-n6ccnc6)cc5)n4)CC3)n(C[C@@H]3CCO3)c2c1 [Compound 154, (S)-2-((6-((4-(1H-imidazol-1-yl)benzyl)oxy)-3′,6′-dihydro-[2,4′-bipyridin]-1′(2′H)-yl)methyl)-1-(oxetan-2-ylmethyl)-1H-benzo[d]imidazole-6-carboxylic acid] |
| ≥ 7.82 | O=C(O)c1ccc2nc(CN3CC=C(c4cccc(OCc5cccc(C(F)(F)F)c5)n4)CC3)n(C[C@@H]3CCO3)c2c1 [Compound 134, (S)-1-(oxetan-2-ylmethyl)-2-((6-((3-(trifluoromethyl)benzyl)oxy)-3′,6′-dihydro-[2,4′-bipyridin]-1′(2H)-yl)methyl)-1H-benzo[d]imidazole-6-carboxylic acid] |
| ≥ 7.82 | N#Cc1ccc(COc2cccc(C3=CCN(Cc4nc5ccc(C(=O)O)cc5n4C[C@@H]4CCO4)CC3)c2)c(F)c1 [Compound 175, (S)-2-((4-(3-((4-cyano-2-fluorobenzyl)oxy)phenyl)-3,6-dihydropyridin-1(2H)-yl)methyl)-1-(oxetan-2-ylmethyl)-1H-benzo[d]imidazole-6-carboxylic acid] |
| ≥ 7.82 | O=C(O)c1ccc2nc(CN3CC=C(c4ncc(F)c(OCc5ccc(C#CC6CC6)cc5F)n4)CC3)n(C[C@@H]3CCO3)c2c1 [Compound 209, (S)-2-((4-(4-((4-(cyclopropylethynyl)-2-fluorobenzyl)oxy)-5-fluoropyrimidin-2-yl)-3,6-dihydropyridin-1(2H)-yl)methyl)-1-(oxetan-2-ylmethyl)-1H-benzo[d]imidazole-6-carboxylic add] |
| ≥ 7.82 | O=C(O)c1ccc2nc(CN3CC(=O)N(c4cccc(OCc5ccc(Cl)cc5F)n4)CC3=O)n(C[C@@H]3CCO3)c2c1 [Compound 168, (S)-2-((4-(6-(4-chloro-2-fluorobenzyloxy)pyridin-2-yl)-2,5-dioxopiperazin-1-yl)methyl)-1-(oxetan-2-ylmethyl)-1H-benzo[d]imidazole-6-carboxylic acid] |
| ≥ 6.00 | O=C(O)c1ccc2nc(CN3CC=C(c4cccc(OCc5ccc(Cl)cc5F)c4F)CC3)n(C[C@@H]3CCO3)c2c1 [Compound 40, (S)-2-((4-(3-(4-chloro-2-fluorobenzyloxy)-2-fluorophenyl)-5,6-dihydropyridin-1(2H)-yl)methyl)-1-(oxetan-2-ylmethyl)-1 h-benzo[d]imidazole-6-carboxylic add] |
| ≥ 6.82 | O=C(O)c1ccc2nc(CN3CC=C(c4cc(F)c(F)c(OCc5ccc(C#CC6CC6)cc5F)c4)CC3)n(C[C@@H]3CCO3)c2c1 [Compound 203, (S)-2-((4-(3-(4-(cyclopropylethynyl)-2-fluorobenzyloxy)-4,5-difluorophenyl)-5,6-dihydropyridin-1(2H)-yl)methyl)-1-(oxetan-2-ylmethyl)-1H-benzo[d]imidazole-6-carboxylic acid] |
| ≥ 7.82 | O=C(O)c1ccc2nc(CN3CC=C(c4cccc(OCc5ccccc5Cl)n4)CC3)n(C[C@@H]3CCO3)c2c1 [Compound 136, (S)-2-((6-((2-chlorobenzyl)oxy)-3′,6′-dihydro-[2,4′-bipyridin]-1′(2′H)-yl)methyl)-1-(oxetan-2-ylmethyl)-1H-benzo[d]imidazole-6-carboxylic acid] |
| ≥ 7.82 | O=C(O)c1ccc2nc(CN3CC=C(c4cccc(OCc5ccc(Cl)cc5F)n4)CC3)n(C[C@@H]3CCO3)c2n1 [Compound 169, (S)-2-((6-((4-chloro-2-fluorobenzyl)oxy)-3′,6′-dihydro-[2,4′-bipyridin]-1′(2′H)-yl)methyl)-3-(oxetan-2-ylmethyl)-3H-imidazo[4,5-b]pyridine-5-carboxylic acid] |
| ≥ 6.00 | O=C(NS(=O)(=O)C(F)(F)F)c1ccc2nc(CN3CC=C(c4cccc(OCc5ccc(Cl)cc5F)n4)CC3)n(C[C@@H]3CCO3)c2c1 [Compound 173, (S)-2-((6-((4-chloro-2-fluorobenzyl)oxy)-3′,6′-dihydro-[2,4′-bipyridin]-1′(2′H)-yl)methyl)-1-(oxetan-2-ylmethyl)-N-((trifluoromethyl)sulfonyl)-1H-benzo[d]imidazole-6-carboxamide] |
| ≥ 6.82 | O=C(O)c1ccc2nc(CN3CCC(c4ccc5ccn(Cc6ccc(Cl)cc6F)c5n4)CC3)n(C[C@@H]3CCO3)c2c1 [Compound 24, (S)-2-((4-(1-(4-chloro-2-fluorobenzyl)-1H-pyrrolo[2,3-b]pyridin-6-yl)piperidin-1-yl)methyl)-1-(oxetan-2-ylmethyl)-1H-benzo[d]imidazole-6-carboxylic add] |
| ≥ 6.82 | O=C(O)c1ccc2nc(CN3CCN(c4ncnc(OCc5ccc(Cl)cc5F)n4)CC3)n(C[C@@H]3CCO3)c2c1 [Compound 167, (S)-2-((4-(4-((4-chloro-2-fluorobenzyl)oxy)-1,3,5-triazin-2-yl)piperazin-1-yl)methyl)-1-(oxetan-2-ylmethyl)-1H-benzo[d]imidazole-6-carboxylic acid] |
| ≥ 7.82 | N#Cc1ccc(COc2ncc(F)c(C3=CCN(Cc4nc5ccc(C(=O)O)cc5n4C[C@@H]4CCO4)CC3)n2)c(F)c1 [Compound 210, (S)-2-((4-(2-(4-cyano-2-fluorobenzyloxy)-5-fluoropyrimidin-4-yl)-5,6-dihydropyridin-1(2H)-yl)methyl)-1-(oxetan-2-ylmethyl)-1H-benzo[d]imidazole-6-carboxylic add] |
| ≥ 7.82 | COc1ccc(COc2cccc(C3=CCN(Cc4nc5ccc(C(=O)O)cc5n4C[C@@H]4CCO4)CC3)n2)cc1 [Compound 118, (S)-2-((6-((4-methoxybenzyl)oxy)-3′,6′-dihydro-[2,4′-bipyridin]-1′(2H)-yl)methyl)-1-(oxetan-2-ylmethyl)-1H-benzo[d]imidazole-6-carboxylic acid] |
| ≥ 6.82 | O=C(O)c1ccc2nc(CN3CC=C(c4ccc(F)c(OCc5ccc(C#CC6CC6)cc5F)c4)CC3)n(C[C@@H]3CCO3)c2c1 [Compound 202, (S)-2-((4-(3-((4-(cyclopropylethynyl)-2-fluorobenzyl)oxy)-4-fluorophenyl)-3,6-dihydropyridin-1(2H)-yl)methyl)-1-(oxetan-2-ylmethyl)-1H-benzo[d]imidazole-6-carboxylic acid] |

| Compound | pEC50 |
| --- | --- |
| O=C(O)c1ccc2nc(CN3CC=C(c4cccc(OCc5ncc(C(F)(F)F)cc5F)n4)CC3)n(C[C@@H]3CCO3)c2c1 [Compound 149, (S)-2-((6-((3-fluoro-5-(trifluoromethyl)pyridin-2-yl)methoxy)-3′,6′-dihydro-[2H′-bipyridin]-1′(2′II)-yl)methyl)-1-(oxetan-2-ylmethyl)-1H-benzo[d]imidazole-6-carboxylic acid] | ≥ 7.82 |
| (S)-2-((4-(3-((4-cyano-2-fluorobenzyl)oxy)-5-fluorophenyl)-5,6-dihydropyridin-1(2H)-yl)methyl)-1-(oxetan-2-ylmethyl)-1H-benzo[d]imidazole-6-carboxylic add [Compound 218] | ≥ 6.82 |
